Holding throughout (type): cell-based
The subject of assay [1] is 697 Human B-ALL Cell Lines. The assay can be described thus: MTT assay, chemosensitivity of 697 cells (wild type, shControl, Mer knockdown), 48 hours. The protocol:
Inhibition of Mer expression results in increased chemosensitivity in 697 cells. […] IC50 values were determined by non-linear regression of data from at least three independent experiments performed in triplicate, as shown in Table 1.
For orientation: Tetrazolium dyes change colour on reduction, which living cells bring about.

Assay [2] relates to REH cells. The assay can be described thus: MTT assay, REH cells (wild type, shControl, Mer knockdown) treated with methotrexate for 48 hours. Conditions: REH shMer4A, shMer4B vs shControl. The text has this: Inhibition of Mer expression results in increased chemosensitivity of REH cells. […] Statistical differences versus shControl are indicated by non-overlapping confidence intervals (95% CI). No significant difference between wild type and shControl was observed.

Assay [3] concerns REH cells. Description: Flow cytometry of apoptotic and dead cells (YO-PRO-1 / propidium iodide), REH cells. Conditions: REH shMer4A, shMer4B vs shControl, 48 hours. The source says: Apoptotic and dead cells were identified by flow cytometric analysis of cells stained with YO-PRO®-1 and propidium iodide: A) representative flow cytometry profiles. The percentage of apoptotic cells is indicated in the lower-right quadrant. The combined percentage of cells in the two upper quadrants indicates the fraction of dead cells.
Apoptotic and dead cells were identified by flow cytometric analysis of cells stained with YO-PRO®-1 and propidium iodide: A) representative flow cytometry profiles. The percentage of apoptotic cells is indicated in the lower-right quadrant. The combined percentage of cells in the two upper quadrants indicates the fraction of dead cells. B) mean values and standard errors derived from 3 independent experiments. Results were tested for significance using two-way repeated measures ANOVA and Bonferroni posttests to compare shControl and Mer knockdown cells at equivalent drug concentrations. Significant differences in apoptotic cell populations are indicated by asterisks (* p<0.01, ** p<0.001). Significant differences in the number of dead cells were also observed († p<0.01, ‡‡ p<0.001). No significant differences between wild type and shControl cells were observed.
A general note: A flow cytometer gives signals particle by particle.

Take `CN(Cc1cnc2nc(N)nc(N)c2n1)c1ccc(C(=O)N[C@@H](CCC(=O)O)C(=O)O)cc1` [MTX, methotrexate]: the IC50 came out at 27.5 nM in assay [1] (697 Wild Type cells), 27.8 nM in assay [1] (697 shControl cells), 12.3 nM in assay [1] (697 shMer1A (Mer knockdown) cells) and 11.8 nM in assay [1] (697 shMer1B (Mer knockdown) cells). The “IC50 values in Mer knockdown cells in comparison to shControl cells” value with REH cells [2] is reported as “significantly lower IC50 values”. Besides, the “apoptotic cell death with Mer knockdown” value in the assay on REH cells [3] is “increased apoptotic cell death”.

The term IC50 denotes the concentration that gives 50% inhibition. Low readings indicate greater potency in that assay, high ones weaker potency in that assay.
